Assay [1] relates to ELAM (E-selectin) expression in endothelial cells. The assay can be described thus: E-selectin (ELAM) cell inflammation assay. The format is cell-based. Conditions: LPS and IL-1β stimulation, read-out: reduction of expression of ELAM, EC50. On the procedure: Endothelial-Leukocyte Adhesion Molecule (ELAM), also known as E-selectin, is expressed on the surface of endothelial cells. In this assay, lipopolysaccharide (LPS) and IL-1β are used to stimulate the expression of ELAM; test agents are tested for their abilities to reduce this expression, in accordance with studies showing that reduction of leukocyte adhesion to endothelial cell surface is associated with decreased cellular damage (e.g., Takada, M., Et al., Transplantation 64: 1520-25, 1997; Steinberg, J. B., et al., J. Heart Lung Trans. 13:306-313, 1994).
Endothelial cells may be selected from any of a number of sources and cultured according to methods known in the art; including, for example, coronary artery endothelial cells, human brain microvascular endothelial cells (HBMEC; Hess, D.C., et al., Neurosci. Left. 213(1): 37-40, 1996), or lung endothelial cells. Cells are conveniently cultured in 96-well plates. Cells are stimulated by adding a solution to each well containing 10 μg/ml LPS and 100 pg/ml IL-1β for 6 hours in the presence of test agent (specific concentrations and time may be adjusted depending on the cell type). Treatment buffer is removed and replaced with pre-warmed Fixing Solution® (100 μl/well) for 25 minutes at room temperature. Cells are then washed 3×, then incubated with Blocking Buffer (PBS+2% FBS) for 25 minutes at room temperature. Blocking Buffer containing Monoclonal E-Selectin Antibody (1:750, Sigma Catalog #S-9555) is added to each well. Plates are sealed and stored at 4° overnight. Plates are washed 4× with 160 μL Blocking Buffer per well. Second Antibody-HRP diluted 1:5000 in Blocking Buffer is then added (100 μL/well), and plates are incubated at room temperature (protected from light) for two hours. Plates are then washed 4× with Blocking Buffer before addition of 100 μL of ABTS Substrate solution at room temperature (Zymed, Catalog #00-2024). Wells are allowed to develop for 35 minutes, before measurement at 402 nm in a Fluoroskan® Reader with shake program for 10 seconds. Positive results are recorded as a decrease in ELAM concentration in tested wells, as compared to control wells.

In assay [2] the test system is IL-1beta release from a mouse microglial cell line. As to the kind of experiment: Interleukin-1 beta microglial cell assay. The format is cell-based. The following applies: LPS and IFN gamma stimulation, 24 hours, read-out: inhibition of IL-1beta induction, EC50. How it is done:
This assay measures the release of IL-1β from a mouse microglial cell line following an inflammatory challenge with LPS and interferon-gamma. The ability of test articles to inhibit microglial cell activation and IL-1beta release is determined by co-incubation of the test article with the inflammatory challenge. Cytokine release is measured using a mouse IL-1β ELISA and cell toxicity is determined using Cell Tracker Green (a fluorescent dye that measures cell viability).
Mouse microglial cells were seeded in poly-D-lysine coated 96-well plates at a density of 10,000 cells/well and allowed to attach for 24 hours. Cells were stimulated by addition of LPS (10 μg/ml) and IFN gamma (10 ng/ml) in the presence or absence of test article. The cells were then incubated for 24 hours at 37° C., after which time the media was removed and used for cytokine determination as described below.
Viability of mouse microglial cells after exposure to the test article was determined using a fluorescent viability dye, Cell Tracker Green. Cell Tracker Green was used at a working concentration of 5 μM in 1× HBSS. Cells were washed once with HBSS (200 μl/well) and 100 μl Cell Tracker Green was added to each well. Cells were then incubated at 37° C. for 30 minutes, after which time the Cell Tracker was removed and the cells were washed once with HBSS (200 μl/well). 100 μl fresh HBSS was added to each well and the plate was read on a Fluoroskan plate reader using an excitation wavelength of 485 nm and an emission wavelength of 538 nm.
1. The IL-1β capture antibody was reconstituted in 1 ml of PBS to give a final concentration of 720 μg/ml, and the working concentration was 4 μg/ml. For coating one 96-well plate (at 100 μl/well) 56 μl of the 720 μg/ml stock was diluted into 10 ml of PBS. 2. The IL-1β standards were reconstituted in 0.5 ml of Reagent Diluent (70 ng/ml). For a high standard of 1 ng/ml (2 wells at 100 μl each+enough for series dilution) 7.1 μl of the 70 ng/ml standard were diluted into 0.5 ml of Reagent Diluent 3. The IL-1β detection antibody was reconstituted in 1 ml of Reagent Diluent to give a final concentration of 18 μg/ml and the working concentration is 100 ng/ml. For one 96-well plate (at 100 μl/well) 56 μl of the 18 μg/ml stock was diluted into 10 ml of Reagent Diluent.
1. The Costar EIA Hi-binding plate was coated with capture antibody at 4 μg/ml. Each well was coated with 100 μl, and the plate was sealed and incubated overnight at room temperature.
2. Each well was aspirated and washed 3× with Wash Buffer. Each well was filled to the top, dispensed, and any remaining buffer was removed by inverting the plate and gently blotting against clean paper towels.
3. Non-specific binding sites were blocked by adding 300 μl of Blocking Buffer to each well, and after sealing incubating for at least 1 hour at room temperature.
5. 100 μl of either standard or sample were added in each well of the capture-coated and pre-blocked plate. The plate was sealed and incubated for 2 hours at room temperature, followed with washing as in step 2.
6. 100 μl of the detection antibody ([…]) were added to each well.
7. The plate was sealed and incubated at room temperature for 2 hours, followed with washing as in step 2.
8. 100 μl of the working dilution of Streptavidin-HRP was added, and the plate was sealed and incubated in the dark for 20 minutes at room temperature, followed with washing as in Step 2.
9. The fresh Substrate Solution was prepared by mixing Color Reagent A (H2O2) and Color Reagent B (Tetramethylbenzidine) in a 1:1 ratio. 100 μl of this Substrate Solution mixture was added to each well and the plate was incubated in the dark for 20 minutes at room temperature. 10. 50 μl of Stop Solution was added to each well, mixing was ensured by gently tapping. 11. Each plate was read with the Spectramax once at 450 nm. Results

pEC50: −log10 of the molar value. Some results are limits rather than exact numbers.

Regarding `CCOC(=O)C1(CSc2nc3ccccc3[nH]2)OC(=O)C(OCC)=C1Sc1nc2ccccc2n1CC` (centres unmarked) [2-(1H-Benzoimidazol-2-ylsulfanylmethyl)-4-ethoxy-3-(1-ethyl-1H-benzoimidazol-2-ylsulfanyl)-5-oxo-2,5-dihydro-furan-2-carboxylic acid ethyl ester], the pEC50 was at least 4.52 in assay [1] and at least 4.70 in assay [2].

As for `CCOC(=O)C1(C[S+]([O-])c2nc3ccccc3s2)OC(=O)C(O)=C1Sc1nc2ccccc2s1` (centres unmarked) [2-(Benzothiazole-2-sulfinylmethyl)-3-(benzothiazol-2-ylsulfanyl)-4-hydroxy-5-oxo-2,5-dihydro-furan-2-carboxylic acid ethyl ester], the pEC50 was at least 4.52 in assay [1] and at least 4.70 in assay [2].

As to `CCOC(=O)C1(CSCc2ccc(Cl)cc2Cl)OC(=O)C(O)=C1SCc1ccc(Cl)cc1Cl` (centres unmarked) [3-(2,4-Dichloro-benzylsulfanyl)-2-(2,4-dichloro-benzylsulfanylmethyl)-4-hydroxy-5-oxo-2,5-dihydro-furan-2-carboxylic acid ethyl ester], the pEC50 is at least 4.52 in assay [1] and at least 4.70 in assay [2].

Take `CCOC(=O)C1(CSc2ccc(F)cc2Cl)OC(=O)C(O)=C1Sc1ccc(F)cc1Cl` (centres unmarked) [3-(2-Chloro-4-fluoro-phenylsulfanyl)-2-(2-chloro-4-fluoro-phenylsulfanylmethyl)-4-hydroxy-5-oxo-2,5-dihydro-furan-2-carboxylic acid ethyl ester]: the results for the pEC50 in assay [1] and in assay [2] were at least 4.52 and at least 4.70, respectively.

As for `CCOC(=O)C1(CSCc2c(F)cccc2Cl)OC(=O)C(O)=C1SCc1c(F)cccc1Cl` (centres unmarked) [3-(2-Chloro-6-fluoro-benzylsulfanyl)-2-(2-chloro-6-fluoro-benzylsulfanylmethyl)-4-hydroxy-5-oxo-2,5-dihydro-furan-2-carboxylic acid ethyl ester], the pEC50 in assay [1] is at least 4.52; in assay [2], at least 4.70.

`CCOC(=O)C1(C(=O)OCC)OC(=O)C(O)=C1SCc1ccc(F)cc1` [3-(4-Fluoro-benzylsulfanyl)-4-hydroxy-5-oxo-5H-furan-2,2-dicarboxylic acid diethyl ester]: the pEC50 in assay [1] was at least 4.52; in assay [2], at least 4.70.

As for `CCOC(=O)C1(CSc2nc3ccccc3[se]2)OC(=O)C(O)=C1Sc1nc2ccccc2[se]1` (centres unmarked) [3-(Benzoselenazol-2-ylsulfanyl)-2-(benzoselenazol-2-ylsulfanylmethyl)-4-hydroxy-5-oxo-2,5-dihydro-furan-2-carboxylic acid ethyl ester], the pEC50 in assay [1] is at least 4.52; in assay [2], at least 4.70.

`CCOC(=O)C1(CSc2nc3ccccc3s2)OC(=O)C(O)=C1Sc1nc2ccccc2s1` (centres unmarked) [3-(Benzothiazol-2-ylsulfanyl)-2-(benzothiazol-2-ylsulfanylmethyl)-4-hydroxy-5-oxo-2,5-dihydro-furan-2-carboxylic acid ethyl ester]: the negative logarithm of the EC50 (pEC50) in assay [1] was at least 4.52; in assay [2], at least 4.70.

`CC(C)OC(=O)C1(CSc2nc3ccccc3s2)OC(=O)C(O)=C1Sc1nc2ccccc2s1` (centres unmarked) [3-(Benzothiazol-2-ylsulfanyl)-2-(benzothiazol-2-ylsulfanylmethyl)-4-hydroxy-5-oxo-2,5-dihydro-furan-2-carboxylic acid isopropyl ester]: the results for the pEC50 in assay [1] and in assay [2] were at least 4.52 and at least 4.70, respectively.

Regarding `CCOC(=O)C1(C[S+]([O-])Cc2ccco2)OC(=O)C(O)=C1[S+]([O-])Cc1ccco1` (centres unmarked) [3-(Furan-2-ylmethanesulfinyl)-2-(furan-2-ylmethanesulfinylmethyl)-4-hydroxy-5-oxo-2,5-dihydro-furan-2-carboxylic acid ethyl ester], the pEC50 was at least 4.52 in assay [1] and at least 4.70 in assay [2].

Regarding `CCOC(=O)C1(CSCc2ccco2)OC(=O)C(OC(=O)C(C)C)=C1SCc1ccco1` (centres unmarked) [3-(Furan-2-ylmethylsulfanyl)-2-(furan-2-ylmethylsulfanylmethyl)-4-isobutyryloxy-5-oxo-2,5-dihydro-furan-2-carboxylic acid ethyl ester], the pEC50 was at least 4.52 in assay [1] and at least 4.70 in assay [2].

For `CCOC(=O)C1(CSCc2ccccc2)OC(=O)C(O)=C1SCc1ccccc1` (centres unmarked) [3-Benzylsulfanyl-2-benzylsulfanylmethyl-4-hydroxy-5-oxo-2,5-dihydro-furan-2-carboxylic acid ethyl ester], the results for the pEC50 in assay [1] and in assay [2] were at least 4.52 and at least 4.70, respectively.

Turning to `CCOC(=O)C1(CSC2CCCCC2)OC(=O)C(O)=C1SC1CCCCC1` (centres unmarked) [3-Cyclohexylsulfanyl-2-cyclohexylsulfanylmethyl-4-hydroxy-5-oxo-2,5-dihydro-furan-2-carboxylic acid ethyl ester], the results for the pEC50 in assay [1] and in assay [2] were at least 4.52 and at least 4.70, respectively.

As for `CCOC(=O)CSCC1(C(=O)OCC)OC(=O)C(OC(=O)C(C)(C)C)=C1SCC(=O)OCC` (centres unmarked) [4-(2,2-Dimethyl-propionyloxy)-3-ethoxycarbonylmethylsulfanyl-2-ethoxycarbonylmethylsulfanylmethyl-5-oxo-2,5-dihydro-furan-2-carboxylic acid ethyl ester], the pEC50 was at least 4.52 in assay [1] and at least 4.70 in assay [2].

For the compound `CCOC(=O)C1(CSc2nc3ccccc3n2C)OC(=O)C(O)=C1Sc1nc2ccccc2n1C` (centres unmarked) [4-Hydroxy-3-(1-methyl-1H-benzoimidazol-2-ylsulfanyl)-2-(1-methyl-1H-benzoimidazol-2-ylsulfanylmethyl)-5-oxo-2,5-dihydro-furan-2-carboxylic acid ethyl ester], the pEC50 in assay [1] is at least 4.52; in assay [2], at least 4.70.

As for `CCOC(=O)C1(CSc2nc3cc(OC)ccc3s2)OC(=O)C(O)=C1Sc1nc2cc(OC)ccc2s1` (centres unmarked) [4-Hydroxy-3-(5-methoxy-benzothiazol-2-ylsulfanyl)-2-(5-methoxy-benzothiazol-2-ylsulfanylmethyl)-5-oxo-2,5-dihydro-furan-2-carboxylic acid ethyl ester], the pEC50 was at least 4.52 in assay [1] and at least 4.70 in assay [2].

These data come from patent publication US7985771B2, “Furanone derivatives” (Monsanto Technology LLC, priority 2002, dated 2011).
